The test system of this test is SK-BR-3 cancer cells. Description: Inhibitory activity against proliferation of SK-BR-3 cancer cells (CellTiter-Glo). The test is classed as cell-based. The following applies: Homo sapiens, SK-BR-3, 120 h, ErbB2-overexpressing SK-BR-3 cells, 120 hours after treatment. The gist of the method:
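GI50 derived from % growth relative to control, measured by CellTiter-Glo luminescence after 120 h compound exposure (12 concentrations, 0.2 nM-5 μM final, n=3). BT-474 grown in RPMI-1640/20% FBS, SK-BR-3 in McCOY'S 5A/10% FBS; seeding 48 h pre-treatment.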

A value given as a limit tells only on which side of the number the result lay.

Take `C=CC(=O)Nc1cc(Nc2cc(N3OCC[C@@H]3c3cccc(-c4cc(F)cc(F)c4)c3)ncn2)c(OC)cc1N1CCC(N2CCOCC2)CC1` [Example 272, (R)-N-(5-((6-(3-(3′,5′-difluoro-[1,1′-biphenyl]-3-yl)-isoxazolidin-2-yl)-pyrimidin-4-yl)-amino)-4-methoxy-2-(4-morpholino-piperidin-1-yl)-phenyl)acrylamide]: the 50% growth inhibitory concentration (GI50) was less than 50 nM. The figure for `C=CC(=O)Nc1cc(Nc2cc(N3OCC[C@@H]3c3cccc(-c4cc(F)cc(F)c4)c3)ncn2)c(OC)cc1N(C)CCN(C)C` [Example 277, (R)-N-(5-((6-(3-(3′,5′-difluoro-[1,1′-biphenyl]-3-yl)-isoxazolidin-2-yl)-pyrimidin-4-yl)-amino)-2-((2-(dimethylamino)-ethyl)(methyl)-amino)-4-methoxy-phenyl)acrylamide] is less than 50 nM; for `C=CC(=O)Nc1cc(Nc2cc(N3OCC[C@@H]3c3cccc(-c4cccc(F)c4)c3)ncn2)c(OC)cc1N1CCNC2(CC2)C1` [Example 291, (R)-N-(5-((6-(3-(3′-fluoro-[1,1′-biphenyl]-3-yl)-isoxazolidin-2-yl)-pyrimidin-4-yl)-amino)-4-methoxy-2-(4,7-diazaspiro-[2.5]octan-7-yl)-phenyl)acrylamide] it is less than 50 nM; for `C=CC(=O)Nc1cc(Nc2cc(N3OCC[C@@H]3c3cccc(C#Cc4ccccc4)c3)ncn2)c(OC)cc1N1CCN(C)CC1` [Example 296, (R)-N-(4-methoxy-2-(4-methylpiper-azin-1-yl)-5-((6-(3-(3-(phenyleth-ynyl)phenyl)isox-azolidin-2-yl)pyr-imidin-4-yl)amino)-phenyl)acrylamide] it is 50 to 500 nM. In the case of `C=CC(=O)Nc1cc(Nc2cc(N3OCC[C@@H]3c3cccc(-c4ccc(O)nc4)c3)ncn2)c(OC)cc1N1CCN(C)CC1` [Example 299, (R)-N-(5-((6-(3-(3-(6-hydroxypyridin-3-yl)phenyl)isox-azolidin-2-yl)pyr-imidin-4-yl)amino)-4-methoxy-2-(4-methylpiperazin-1-yl)phenyl)acryl-amide], the GI50 lay in the range of 500 to 5000 nM.

On to `C=CC(=O)Nc1cc(Nc2cc(N3OCC[C@@H]3c3cccc(C#CC(C)(C)C)c3)ncn2)c(OC)cc1N1CCN(C)CC1` [Example 311, (R)-N-(5-((6-(3-(3-(3,3-dimethyl-but-1-yn-1-yl)phen-yl)isoxazolidin-2-yl)pyrimidin-4-yl)-amino)-4-methoxy-2-(4-methylpiper-azin-1-yl)phenyl)-acrylamide], for which the 50% growth inhibitory concentration (GI50) fell in the range of 50 to 500 nM. On to `C=CC(=O)Nc1cc(Nc2cc(N3OCC[C@@H]3c3cccc(C#Cc4cccc(O)c4)c3)ncn2)c(OC)cc1N(C)CCN(C)C` [Example 312, (R)-N-(2-((2-(dimethylamino)-ethyl)(methyl)-amino)-5-((6-(3-(3-((3-hydroxy-phenyl)ethynyl)-phenyl)isoxazol-idin-2-yl)pyrim-idin-4-yl)amino)-4-methoxyphen-yl)acrylamide], for which the GI50 lay in the range of 50 to 500 nM.

Regarding `C=CC(=O)Nc1cc(Nc2cc(N3OCC[C@@H]3c3cccc(C#Cc4cccc(F)c4)c3)ncn2)c(OC)cc1N(C)CCN(C)C` [Example 313, (R)-N-(2-((2-(dimethylamino)-ethyl)(methyl)-amino)-5-((6-(3-(3-((3-fluorophen-yl)ethynyl)phenyl)-isoxazolidin-2-yl)pyrimidin-4-yl)-amino)-4-methoxy-phenyl)acrylamide], the 50% growth inhibitory concentration (GI50) is less than 50 nM. For the compound `C=CC(=O)Nc1cc(Nc2cc(N3OCC[C@@H]3c3cccc(-c4cccc(F)c4)c3)ncn2)c(OC)cc1N1CC2CCC(C1)N2C1CC1` [Example 316, N-(2-((1R,5S)-8-cyclopropyl-3,8-diazabicyclo-[3.2.1]octan-3-yl)-5-((6-((R)-3-(3′-fluoro-[1,1′-biphen-yl]-3-yl)isoxazol-idin-2-yl)pyrim-idin-4-yl)amino)-4-methoxyphenyl)-acrylamide], the GI50 lay in the range of 50 to 500 nM.

Take `C=CC(=O)Nc1cc(Nc2cc(N3OCC[C@@H]3c3cccc(-c4cccc(F)c4)c3)ncn2)c(OC)cc1N1CC2CN(C)CC2C1` (stereo partly drawn) [Example 319, N-(5-((6-((R)-3-(3′-fluoro-[1,1′-biphenyl]-3-yl)-isoxazolidin-2-yl)-pyrimidin-4-yl)-amino)-4-methoxy-2-(5-methylhexa-hydropyrrolo[3,4-c]pyrrol-2(1H)-yl)-phenyl)acrylamide]: the GI50 is less than 50 nM. For the compound `C=CC(=O)Nc1cc(Nc2cc(N3OCC[C@@H]3c3cccc(-c4cccc(F)c4)c3)ncn2)c(OC)cc1N1CC2(CNC2)C1` [Example 321, (R)-N-(5-((6-(3-(3′-fluoro-[1,1′-biphenyl]-3-yl)-isoxazolidin-2-yl)-pyrimidin-4-yl)-amino)-4-meth-oxy-2-(2,6-diaza-spiro[3.3]heptan-2-yl)phenyl)acryl-amide], the GI50 was 50 to 500 nM.

With `C=CC(=O)Nc1cc(Nc2cc(N3OCC[C@@H]3c3cccc(OCc4cccc(F)c4)c3)ncn2)c(OC)cc1N1CCN(C)CC1` [Example compound 83, (R)-N-(5-((6-(3-(3-((3-fluorobenzyl)oxy)phenyl)isoxazolidin-2-yl)pyrimidin-4-yl)amino)-4-methoxy-2-(4-methylpiperazin-1-yl)phenyl)acrylamide], the GI50 is 50 to 500 nM. In the case of `C=CC(=O)Nc1cc(Nc2cc(N3OCC[C@@H]3c3cccc(Oc4cccc(C(F)(F)F)c4)c3)ncn2)c(OC)cc1N1CCN(C)CC1` [Example compound 93, (R)-N-(4-methoxy-2-(4-methylpiperazin-1-yl)-5-((6-(3-(3-(3-(trifluoromethyl)phenoxy)phenyl)isoxazolidin-2-yl)pyrimidin-4-yl)amino)phenyl)acrylamide], the GI50 was less than 50 nM. Under `C=CC(=O)Nc1cc(Nc2cc(N3OCC[C@@H]3c3cccc(Oc4cccc(C(F)(F)F)c4)c3)ncn2)c(OC)cc1N1CCC(N2CCN(C3CC3)CC2)CC1` [Example compound 94, (R)-N-(2-(4-(4-cyclopropylpiperazin-1-yl)piperidin-1-yl)-4-methoxy-5-((6-(3-(3-(3-(trifluoromethyl)phenoxy)phenyl)isoxazolidin-2-yl)pyrimidin-4-yl)amino)phenyl)acrylamide] stands less than 50 nM; under `C=CC(=O)Nc1cc(Nc2cc(N3OCCC3c3cccc(OCc4ccccn4)c3)ncn2)c(OC)cc1N1CC[C@@H](N(C)C)C1` (some centres unmarked) [Example compound 97], less than 50 nM; under `C=CC(=O)Nc1cc(Nc2cc(N3OCC[C@@H]3c3cccc(OCc4cccc(C)n4)c3)ncn2)c(OC)cc1N1CCN(C)CC1` [Example compound 99, (R)-N-(4-methoxy-2-(4-methylpiperazin-1-yl)-5-((6-(3-(3-((6-methylpyridin-2-yl)methoxy)phenyl)isoxazolidin-2-yl)pyrimidin-4-yl)amino)phenyl)acrylamide], 50 to 500 nM. Consider `C=CC(=O)Nc1cc(Nc2cc(N3OCC[C@@H]3c3cccc(OCc4cccc(C)n4)c3)ncn2)c(OC)cc1N1CCC(N2CCN(C3CC3)CC2)CC1` [Example compound 100, (R)-N-(2-(4-(4-cyclopropylpiperazin-1-yl)piperidin-1-yl)-4-methoxy-5-((6-(3-(3-((6-methylpyridin-2-yl)methoxy)phenyl)isoxazolidin-2-yl)pyrimidin-4-yl)amino)phenyl)acrylamide], for which the GI50 was in the range of 50 to 500 nM. With `C=CC(=O)Nc1cc(Nc2cc(N3OCC[C@@H]3c3cccc(Oc4cc(F)ccc4F)c3)ncn2)c(OC)cc1N1CCN(C)CC1` [Example compound 103, (R)-N-(5-((6-(3-(3-(2,5-difluorophenoxy)phenyl)isoxazolidin-2-yl)pyrimidin-4-yl)amino)-4-methoxy-2-(4-methylpiperazin-1-yl)phenyl)acrylamide], the concentration for 50% growth inhibition (GI50) was in the range of 50 to 500 nM. `C=CC(=O)Nc1cc(Nc2cc(N3OCCC3c3ccc(Cl)c(OCc4cccc(F)c4)c3)ncn2)c(OC)cc1N1CCN(C)CC1` (centres unmarked) [Example compound 115, N-(5-((6-(3-(4-chloro-3-((3-fluorobenzyl)oxy)phenyl)isoxazolidin-2-yl)pyrimidin-4-yl)amino)-4-methoxy-2-(4-methylpiperazin-1-yl)phenyl)acrylamide]: the 50% growth inhibitory concentration (GI50) fell in the range of 50 to 500 nM. Consider `C=CC(=O)Nc1cc(Nc2cc(N3OCCC3c3cccc(-c4ccoc4)c3)ncn2)c(OC)cc1N1CCC(N2CCN(C3CC3)CC2)CC1` (centres unmarked) [Example compound 123, N-(2-(4-(4-cyclopropylpiperazin-1-yl)piperidin-1-yl)-5-((6-(3-(3-(furan-3-yl)phenyl)isoxazolidin-2-yl)pyrimidin-4-yl)amino)-4-methoxyphenyl)acrylamide], for which the GI50 was less than 50 nM.

As to `C=CC(=O)Nc1cc(Nc2cc(N3OCC[C@@H]3c3cc(F)cc(-c4cnn(C)c4)c3)ncn2)c(OC)cc1N1CCC(N2CCN(C3CC3)CC2)CC1` [Example compound 129, (R)-N-(2-(4-(4-cyclopropylpiperazin-1-yl)piperidin-1-yl)-5-((6-(3-(3-fluoro-5-(1-methyl-1H-pyrazol-4-yl)phenyl)isoxazolidin-2-yl)pyrimidin-4-yl)amino)-4-methoxyphenyl)acrylamide], the GI50 is less than 50 nM. Under `C=CC(=O)Nc1cc(Nc2cc(N3OCC[C@@H]3c3cc(F)cc(-c4cccc(F)c4)c3)ncn2)c(OC)cc1N1CCN(C)CC1` [Example compound 130, (R)-N-(5-((6-(3-(3′,5-difluoro-[1,1′-biphenyl]-3-yl)isoxazolidin-2-yl)pyrimidin-4-yl)amino)-4-methoxy-2-(4-methylpiperazin-1-yl)phenyl)acrylamide] stands less than 50 nM; under `C=CC(=O)Nc1cc(Nc2cc(N3OCC[C@@H]3c3cc(F)cc(-c4cccc(F)c4)c3)ncn2)c(OC)cc1N1CCC(N2CCN(C3CC3)CC2)CC1` [Example compound 131, (R)-N-(2-(4-(4-cyclopropylpiperazin-1-yl)piperidin-1-yl)-5-((6-(3-(3′,5-difluoro-[1,1′-biphenyl]-3-yl)isoxazolidin-2-yl)pyrimidin-4-yl)amino)-4-methoxyphenyl)acrylamide], less than 50 nM.

Values taken from patent US20240262815A1, “HETEROARYL DERIVATIVE, METHOD FOR PREPARING SAME, AND PHARMACEUTICAL COMPOSITION COMPRISING SAME AS ACTIVE INGREDIENT” (VORONOI INC., priority 2021, published 2024).
